Tests used:
Assay type in all cases: in vivo, human
estradiol = experiment: Phase I repeated dose study 101-50202: serum estradiol
From the text: (§1) Fispemifene has been studied in two phase I studies in humans—in a single dose and a repeated dose study. Effect of fispemifene on hormone levels was one main focus of the repeated dose study. The phase I repeated dose study (number 101-50202) was a randomized, double-blind, placebo-controlled 28-day dose-escalation study performed in 31 healthy, elderly men, aged 50-68 years. The main objective of the study was to investigate the tolerability, safety and pharmacokinetics of fispemifene after repeated oral doses, but the study focused also on the effects of fispemifene on serum free and total testosterone, estradiol, and other relevant hormones. The fispemifene doses 10, 30, 100 and 300 mg per day and placebo were administered once every morning as capsules containing 10 mg or 100 mg of fispemifene, or placebo.
(§2) The variables for safety and tolerability were adverse events, vital signs, 12-lead ECG, clinical laboratory evaluations, physical examination, ultrasound examinations (mammary glands) and inhibin B. For pharmacokinetics, the concentrations of fispemifene and its metabolite(s) were to be evaluated. For pharmacodynamics, serum concentrations of FSH, LH, estradiol, testosterone, SHBG, prolactin, aldosterone, cortisol and TSH before and during treatment were measured and compared with the concentrations in the placebo-group.

testosterone/E2 ratio = experiment: Example 3 study in hypogonadal men: testosterone/E2 ratio (ITT); conditions: for Testosterone/E2 Ratio % Change from Baseline to Week 2, Max / Testosterone/E2 Ratio % Change from Baseline to Week 2, Mean ± SD / Testosterone/E2 Ratio % Change from Baseline to Week 2, Median / Testosterone/E2 Ratio % Change from Baseline to Week 2, Min: Week 2, (Week minus Baseline) divided by Baseline; for Testosterone/E2 Ratio % Change from Baseline to Week 2, Max / Testosterone/E2 Ratio % Change from Baseline to Week 2, Mean ± SD / Testosterone/E2 Ratio % Change from Baseline to Week 2, Median / Testosterone/E2 Ratio % Change from Baseline to Week 2, Min / Testosterone/E2 Ratio % Change from Baseline to Week 4, Max / Testosterone/E2 Ratio % Change from Baseline to Week 4, Mean ± SD / Testosterone/E2 Ratio % Change from Baseline to Week 4, Median / Testosterone/E2 Ratio % Change from Baseline to Week 4, Min / Testosterone/E2 Ratio % Change from Baseline to Week 6, Max / Testosterone/E2 Ratio % Change from Baseline to Week 6, Mean ± SD / Testosterone/E2 Ratio % Change from Baseline to Week 6, Median / Testosterone/E2 Ratio % Change from Baseline to Week 6, Min: LOCF; for Testosterone/E2 Ratio % Change from Baseline to Week 4, Max / Testosterone/E2 Ratio % Change from Baseline to Week 4, Mean ± SD / Testosterone/E2 Ratio % Change from Baseline to Week 4, Median / Testosterone/E2 Ratio % Change from Baseline to Week 4, Min: Week 4, (Week minus Baseline) divided by Baseline; for Testosterone/E2 Ratio % Change from Baseline to Week 6, Max / Testosterone/E2 Ratio % Change from Baseline to Week 6, Mean ± SD / Testosterone/E2 Ratio % Change from Baseline to Week 6, Median / Testosterone/E2 Ratio % Change from Baseline to Week 6, Min: Week 6, (Week minus Baseline) divided by Baseline
Protocol: A randomized, double-blind, placebo controlled, parallel-group study of once-daily doses of fispemifene (100, 200, and 300 mg/day) given for 4 weeks was conducted in a population of hypogonadal men. Subjects were required to meet all of the following inclusion criteria at screening and prior to randomization to be eligible for the study:
There were 77 subjects total. The number of subjects randomized to the 100 mg fispemifene, 200 mg fispemifene, 300 mg fispemifene, and placebo arms were 21, 21, 19, and 16, respectively.
Subjects were randomly assigned to one of four treatment groups in a 1:1:1:1 ratio: • Treatment A (100 mg): fispemifene 100 mg+placebo+placebo; • Treatment B (200 mg): fispemifene 100 mg+fispemifene 100 mg+placebo; • Treatment C (300 mg): fispemifene 100 mg+fispemifene 100 mg+fispemifene 100 mg; and • Treatment D (Placebo): placebo+placebo+placebo.
Subjects took one dose (three capsules) of study medication once a day at home for 4 weeks. Capsules were to be taken in the morning immediately after breakfast, with the exception of the morning of the Week 4 visit. Capsules were not to be taken on the morning of the Week 4 visit because trough plasma levels of fispemifene were determined by a blood sample taken at this visit. Each subject was randomly assigned to treatment with one of the 3 different dose regimens of fispemifene or placebo vehicle. Each subject received a 4 week supply of study drug.
Blood samples were taken from the subjects within 1 week prior to dosing with study drug to establish baseline values; after 2 and 4 weeks of randomization; and 2 weeks after the last dose of study drug. Serum was prepared from those samples and used to determine the mean % change from baseline in total testosterone, free testosterone, SHBG (sex hormone-binding globulin), DHT (dihydrotestosterone), E2 (estradiol), LH (luteinizing hormone), FSH (follicle stimulating hormone), and inhibin B.
3. Percent change from baseline in SHBG, DHT, E2, LH, FSH, inhibin B, and testosterone/E2 ratio at Weeks 2, 4, and 6.

LH = experiment: Phase I repeated dose study 101-50202: serum LH
From the text: as §1, §2

OCCOCCOc1ccc(/C(=C(/CCCl)c2ccccc2)c2ccccc2)cc1 [Fispemifene, (Z)-2-{2-[4-(4-Chloro-1,2-diphenylbut-1-enyl)phenoxy]ethoxy}ethanol]
Serum estradiol, Mean (estradiol; 10 mg/day, Baseline): 106.2 pmol/L | Serum estradiol, Mean (estradiol; 10 mg/day, Day 8): 94.7 pmol/L | Serum estradiol, Mean (estradiol; 10 mg/day, Day 15): 81.7 pmol/L | Serum estradiol, Mean (estradiol; 10 mg/day, Day 22): 116.6 pmol/L | Serum estradiol, Mean (estradiol; 10 mg/day, Day 28): 75.0 pmol/L | Serum estradiol, Mean (estradiol; 30 mg/day, Baseline): 97.8 pmol/L | Serum estradiol, Mean (estradiol; 30 mg/day, Day 8): 105.6 pmol/L | Serum estradiol, Mean (estradiol; 30 mg/day, Day 15): 102.4 pmol/L | Serum estradiol, Mean (estradiol; 30 mg/day, Day 22): 99.6 pmol/L | Serum estradiol, Mean (estradiol; 30 mg/day, Day 28): 87.0 pmol/L | Serum estradiol, Mean (estradiol; 100 mg/day, Baseline): 84.3 pmol/L | Serum estradiol, Mean (estradiol; 100 mg/day, Day 8): 108.3 pmol/L | Serum estradiol, Mean (estradiol; 100 mg/day, Day 15): 111.5 pmol/L | Serum estradiol, Mean (estradiol; 100 mg/day, Day 22): 106.3 pmol/L | Serum estradiol, Mean (estradiol; 100 mg/day, Day 28): 94.5 pmol/L | Serum estradiol, Mean (estradiol; 300 mg/day, Baseline): 102.5 pmol/L | Serum estradiol, Mean (estradiol; 300 mg/day, Day 8): 104.0 pmol/L | Serum estradiol, Mean (estradiol; 300 mg/day, Day 15): 97.8 pmol/L | Serum estradiol, Mean (estradiol; 300 mg/day, Day 22): 95.5 pmol/L | Serum estradiol, Mean (estradiol; 300 mg/day, Day 28): 89.7 pmol/L | Testosterone/E2 Ratio % Change from Baseline to Week 2, Max (testosterone/E2 ratio; 100 mg): 1.21 | Testosterone/E2 Ratio % Change from Baseline to Week 2, Mean ± SD (testosterone/E2 ratio; 100 mg): 0.21 ± 0.457 | Testosterone/E2 Ratio % Change from Baseline to Week 2, Median (testosterone/E2 ratio; 100 mg): 0.18 | Testosterone/E2 Ratio % Change from Baseline to Week 2, Min (testosterone/E2 ratio; 100 mg): −0.39 | Testosterone/E2 Ratio % Change from Baseline to Week 4, Max (testosterone/E2 ratio; 100 mg): 1.57 | Testosterone/E2 Ratio % Change from Baseline to Week 4, Mean ± SD (testosterone/E2 ratio; 100 mg): 0.22 ± 0.482 | Testosterone/E2 Ratio % Change from Baseline to Week 4, Median (testosterone/E2 ratio; 100 mg): 0.13 | Testosterone/E2 Ratio % Change from Baseline to Week 4, Min (testosterone/E2 ratio; 100 mg): −0.29 | Testosterone/E2 Ratio % Change from Baseline to Week 6, Max (testosterone/E2 ratio; 100 mg): 0.411 | Testosterone/E2 Ratio % Change from Baseline to Week 6, Mean ± SD (testosterone/E2 ratio; 100 mg): −0.002 ± 0.1993 | Testosterone/E2 Ratio % Change from Baseline to Week 6, Median (testosterone/E2 ratio; 100 mg): 0.029 | Testosterone/E2 Ratio % Change from Baseline to Week 6, Min (testosterone/E2 ratio; 100 mg): −0.337 | Testosterone/E2 Ratio Actual Value at Baseline (Visit 2), Max (testosterone/E2 ratio; 100 mg): 27.0 | Testosterone/E2 Ratio Actual Value at Baseline (Visit 2), Mean ± SD (testosterone/E2 ratio; 100 mg): 15.2 ± 6.39 | Testosterone/E2 Ratio Actual Value at Baseline (Visit 2), Median (testosterone/E2 ratio; 100 mg): 14.7 | Testosterone/E2 Ratio Actual Value at Baseline (Visit 2), Min (testosterone/E2 ratio; 100 mg): 5.2 | Testosterone/E2 Ratio % Change from Baseline to Week 2, Max (testosterone/E2 ratio; 200 mg): 0.93 | Testosterone/E2 Ratio % Change from Baseline to Week 2, Mean ± SD (testosterone/E2 ratio; 200 mg): 0.25 ± 0.418 | Testosterone/E2 Ratio % Change from Baseline to Week 2, Median (testosterone/E2 ratio; 200 mg): 0.19 | Testosterone/E2 Ratio % Change from Baseline to Week 2, Min (testosterone/E2 ratio; 200 mg): −0.29 | Testosterone/E2 Ratio % Change from Baseline to Week 4, Max (testosterone/E2 ratio; 200 mg): 1.08 | Testosterone/E2 Ratio % Change from Baseline to Week 4, Mean ± SD (testosterone/E2 ratio; 200 mg): 0.18 ± 0.387 | Testosterone/E2 Ratio % Change from Baseline to Week 4, Median (testosterone/E2 ratio; 200 mg): 0.17 | Testosterone/E2 Ratio % Change from Baseline to Week 4, Min (testosterone/E2 ratio; 200 mg): −0.34 | Testosterone/E2 Ratio % Change from Baseline to Week 6, Max (testosterone/E2 ratio; 200 mg): 0.937 | Testosterone/E2 Ratio % Change from Baseline to Week 6, Mean ± SD (testosterone/E2 ratio; 200 mg): 0.019 ± 0.3760 | Testosterone/E2 Ratio % Change from Baseline to Week 6, Median (testosterone/E2 ratio; 200 mg): −0.030 | Testosterone/E2 Ratio % Change from Baseline to Week 6, Min (testosterone/E2 ratio; 200 mg): −0.517 | Testosterone/E2 Ratio Actual Value at Baseline (Visit 2), Max (testosterone/E2 ratio; 200 mg): 30.2 | Testosterone/E2 Ratio Actual Value at Baseline (Visit 2), Mean ± SD (testosterone/E2 ratio; 200 mg): 14.2 ± 5.73 | Testosterone/E2 Ratio Actual Value at Baseline (Visit 2), Median (testosterone/E2 ratio; 200 mg): 14.9 | Testosterone/E2 Ratio Actual Value at Baseline (Visit 2), Min (testosterone/E2 ratio; 200 mg): 6.3 | Testosterone/E2 Ratio % Change from Baseline to Week 2, Max (testosterone/E2 ratio; 300 mg): 1.43 | Testosterone/E2 Ratio % Change from Baseline to Week 2, Mean ± SD (testosterone/E2 ratio; 300 mg): 0.21 ± 0.372 | Testosterone/E2 Ratio % Change from Baseline to Week 2, Median (testosterone/E2 ratio; 300 mg): 0.15 | Testosterone/E2 Ratio % Change from Baseline to Week 2, Min (testosterone/E2 ratio; 300 mg): −0.24 | Testosterone/E2 Ratio % Change from Baseline to Week 4, Max (testosterone/E2 ratio; 300 mg): 1.12 | Testosterone/E2 Ratio % Change from Baseline to Week 4, Mean ± SD (testosterone/E2 ratio; 300 mg): 0.33 ± 0.428 | Testosterone/E2 Ratio % Change from Baseline to Week 4, Median (testosterone/E2 ratio; 300 mg): 0.36 | Testosterone/E2 Ratio % Change from Baseline to Week 4, Min (testosterone/E2 ratio; 300 mg): −0.53 | Testosterone/E2 Ratio % Change from Baseline to Week 6, Max (testosterone/E2 ratio; 300 mg): 0.65 | Testosterone/E2 Ratio % Change from Baseline to Week 6, Mean ± SD (testosterone/E2 ratio; 300 mg): 0.12 ± 0.250 | Testosterone/E2 Ratio % Change from Baseline to Week 6, Median (testosterone/E2 ratio; 300 mg): 0.11 | Testosterone/E2 Ratio % Change from Baseline to Week 6, Min (testosterone/E2 ratio; 300 mg): −0.29 | Testosterone/E2 Ratio Actual Value at Baseline (Visit 2), Max (testosterone/E2 ratio; 300 mg): 23.1 | Testosterone/E2 Ratio Actual Value at Baseline (Visit 2), Mean ± SD (testosterone/E2 ratio; 300 mg): 11.5 ± 4.87 | Testosterone/E2 Ratio Actual Value at Baseline (Visit 2), Median (testosterone/E2 ratio; 300 mg): 10.6 | Testosterone/E2 Ratio Actual Value at Baseline (Visit 2), Min (testosterone/E2 ratio; 300 mg): 1.7 | Serum LH, Mean (LH; 10 mg/day, Baseline): 3.47 U/L | Serum LH, Mean (LH; 10 mg/day, Day 8): 3.12 U/L | Serum LH, Mean (LH; 10 mg/day, Day 15): 2.87 U/L | Serum LH, Mean (LH; 10 mg/day, Day 22): 3.56 U/L | Serum LH, Mean (LH; 10 mg/day, Day 28): 3.02 U/L | Serum LH, Mean (LH; 30 mg/day, Baseline): 3.58 U/L | Serum LH, Mean (LH; 30 mg/day, Day 8): 4.26 U/L | Serum LH, Mean (LH; 30 mg/day, Day 15): 5.02 U/L | Serum LH, Mean (LH; 30 mg/day, Day 22): 4.32 U/L | Serum LH, Mean (LH; 30 mg/day, Day 28): 4.42 U/L | Serum LH, Mean (LH; 100 mg/day, Baseline): 4.12 U/L | Serum LH, Mean (LH; 100 mg/day, Day 8): 5.52 U/L | Serum LH, Mean (LH; 100 mg/day, Day 15): 6.82 U/L | Serum LH, Mean (LH; 100 mg/day, Day 22): 7.18 U/L | Serum LH, Mean (LH; 100 mg/day, Day 28): 7.60 U/L | Serum LH, Mean (LH; 300 mg/day, Baseline): 4.58 U/L | Serum LH, Mean (LH; 300 mg/day, Day 8): 6.80 U/L | Serum LH, Mean (LH; 300 mg/day, Day 15): 6.75 U/L | Serum LH, Mean (LH; 300 mg/day, Day 22): 7.77 U/L | Serum LH, Mean (LH; 300 mg/day, Day 28): 6.70 U/L | effect on serum concentration of LH (LH; during the 28 days of treatment): increased
